Assay results: paper PMC10106456 (Communications Biology, 2023)
Where “and” joins values, the source holds several entries; their conditions need not be identical. Equal values may be shown once. Read-outs that look alike come from different tables or passages of the source.

Columns and labels:
[1] = target: T1, Tet(X6) (Proteus genomosp. 6, UniProt A0A6I7DAX3); experiment: Substrate degradation by LC-MS (extracted ion counts); format: biochemical, Proteus genomospecies; details: Tet(X6) reaction of aTC
T1 sequence (A0A6I7DAX3 entry or part of it): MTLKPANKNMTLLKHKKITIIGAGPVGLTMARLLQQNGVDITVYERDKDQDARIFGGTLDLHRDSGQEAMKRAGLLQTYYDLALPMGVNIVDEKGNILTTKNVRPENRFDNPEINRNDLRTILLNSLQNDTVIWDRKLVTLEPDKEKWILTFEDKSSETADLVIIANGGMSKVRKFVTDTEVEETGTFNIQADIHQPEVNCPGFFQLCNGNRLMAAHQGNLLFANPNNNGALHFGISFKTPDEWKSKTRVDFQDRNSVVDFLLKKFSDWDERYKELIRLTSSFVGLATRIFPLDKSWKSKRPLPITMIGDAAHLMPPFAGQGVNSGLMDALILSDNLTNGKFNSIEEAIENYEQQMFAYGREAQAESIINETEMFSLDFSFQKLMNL
Experimental: (§1) All in vitro kinetic assays were prepared open to air in non-degassed buffer solutions at room temperature. […] In vitro reactions were monitored by optical absorbance spectroscopy on an Agilent Cary 50 UV-visible spectrophotometer using polystyrene cuvettes. Reaction progress was monitored by optical absorbance spectroscopy (280−550 nm, 1 nm and 5 min intervals) over 2 h. […] The quenched samples were centrifuged (5000 rpm, 4 °C) for 5 min, and 600 μL of the resulting supernatant was mixed with an Fmoc-Ala internal standard (3.12 μM final concentration) and analyzed by LC-MS in positive ion mode (single trial). LC-MS was acquired using an Agilent 6130 single quadrupole instrument (ESI + ) with G1313 autosampler, G1315 diode array detector, and 1200 series solvent module with separation on a Phenomenex Gemini C18 column, 50 × 2 mm (5 um) fit with a guard column cassette. LCMS solvents were 0.1% formic acid in H2O (A) and 0.1% formic acid in acetonitrile (B). […] LCMS data were processed using ChemStation software version B.04.02 SP1. Extracted ion chromatograms (EICs) for the expected [M + H]^+ molecular ions corresponding to substrate and mono-hydroxylated product were normalized to the [M + H]^+ counts for an Fmoc-Ala internal standard.

[2] = system: E. coli expressing Tet(X7); experiment: Checkerboard whole cell inhibition assay (tetracycline + anhydrotetracycline); format: cell-based; details: pZE24-tetX7, panel concentrations in μg/mL per Supp. Data 3
Experimental: (§2) For high expression, 1 mM IPTG fully relieves repression by LacI[44] thus only IPTG was used in whole-cell tests. Chemically-competent E. coli DH5αZ1 (Expressys) was transformed with these pZE24 constructs by heat shock. Minimum inhibitory concentrations (MICs) were measured as per Clinical and Laboratory Standards Institute (CLSI) guidelines. Substrates and inhibitors were dissolved in DMSO (20 mg/mL) then diluted to working concentrations in cation-adjusted Mueller-Hinton II broth supplemented with 50 μg/mL kanamycin (Supplementary Data 2). Antibiotic susceptibility testing panels were prepared in 96-well flat-bottom microplates (Corning) by two-fold serial dilution of the antibiotic of interest (Supplementary Data 3). […] Liquid cultures of each strain were grown to exponential phase then diluted to a standard concentration (OD600 = 0.0015, which is equivalent to double ~5 × 10^5 CFU/mL) and inoculated into each panel at a 1:1 ratio. […] Each strain-antibiotic/inhibitor combination was tested in triplicate, along with no-drug and no-cell controls. Inoculated panels were sealed with Breathe-Easy membranes (Sigma-Aldrich) and incubated at 37 °C for 20 h. MICs were scored by absorbance measurements at 600 nm (OD600) using the Synergy H1 microplate reader (Biotek Instruments, Inc).

[3] = system: E. coli DH5αZ1 pZE24-empty; experiment: as above; format: cell-based
Experimental: as §2

[4] = target: T1, Tet(X6); experiment: Apparent Tet(X6) inhibitor IC50 (optical absorbance assay); format: biochemical, Proteus genomospecies; details: for IC50: Tet(X6); for Slope (velocity of substrate degradation in presence of aTC): trials 1-3
Experimental: All experiments were prepared open to air in non-degassed buffer solutions at room temperature. […] Initial enzyme velocities were determined by linear regression using Agilent Cary WinUV Software over the linear range of the reaction (typically between 0 to 1 min). The velocities were plotted against the logarithm of inhibitor concentration, and apparent IC50 values were determined using nonlinear regression analysis in GraphPad Prism v6. Each set of experiments included a no-TDase control reaction which was used as the full enzyme inhibition velocity and assigned to an inhibitor concentration of 1 × 10^15, as well as a no-inhibitor control which was assigned an inhibitor concentration of 1 × 10^–15.

[5] = target: T1, Tet(X6); details: for Slope (initial velocity of substrate degradation): trials 1-3, absorbance 400 nm (440 nm for aTC)
Experimental: All experiments were prepared open to air in non-degassed buffer solutions at room temperature. […] Initial enzyme velocities were determined by linear regression using Agilent Cary WinUV Software over the linear range of the reaction (typically between 0 to 1 min), plotted against the concentration of the substrate, and fitted to the Michaelis–Menten or allosteric sigmoidal nonlinear regression equations using GraphPad Prism 6.

[6] = system: E. coli DH5αZ1 + pZE24-tet(X6); experiment: Microbroth dilution antibiotic susceptibility test (MIC); format: cell-based; details: Escherichia coli
Experimental: as §2

[7] = system: E. coli DH5αZ1 + pZE24 (empty); experiment: as above; format: cell-based; details: Escherichia coli, 20 h, drug alone
Experimental: as §2

[8] = system: E. coli DH5αZ1 + pZE24-tet(X7); experiment: as above; format: cell-based; details: Escherichia coli, 20 h
Experimental: as §2

[9] = system: E. coli expressing Tet(X6); format: cell-based; details: pZE24-tetX6, panel concentrations in μg/mL per Supp. Data 3
Experimental: as §2

[10] = target: T1, Tet(X6); experiment: Substrate degradation by scanning optical absorbance spectroscopy; format: biochemical, Proteus genomospecies; details: in the presence of Tet(X6), NADPH, and O2; 20 μM substrate, 2 h
Experimental: as §1

Cc1c2c(c(O)c3c(O)cccc13)C(=O)[C@]1(O)C(=O)C(C(N)=O)=C(O)[C@@H](N(C)C)[C@@H]1C2 [aTC, anhydrotetracycline]
Percent Ion Count (relative %) ([1]; time 0 min): 100%
Percent Ion Count (relative %) ([1]; time 5 min): 95.7447%
Percent Ion Count (relative %) ([1]; time 30 min): 80%
Percent Ion Count (relative %) ([1]; time 60 min): 64.9123%
Percent Ion Count (relative %) ([1]; time 90 min): 74.5098%
Percent Ion Count (relative %) ([1]; time 120 min): 75.7895%
ATC concentration inhibiting growth at fixed TET (Fig3a source data) ([2]; TET 0): 8
ATC concentration inhibiting growth at fixed TET (Fig3a source data) ([2]; TET 1): 8
ATC concentration inhibiting growth at fixed TET (Fig3a source data) ([2]; TET 2): 4
ATC concentration inhibiting growth at fixed TET (Fig3a source data) ([2]; TET 4): 4
ATC concentration inhibiting growth at fixed TET (Fig3a source data) ([2]; TET 8): 2
ATC concentration inhibiting growth at fixed TET (Fig3a source data) ([2]; TET 16): 0.5
ATC concentration inhibiting growth at fixed TET (Fig3a source data) ([2]; TET 32): 0
ATC concentration inhibiting growth at fixed TET (Fig3a source data) ([3]; TET 0, panel concentrations in μg/mL per Supp. Data 3): 4
ATC concentration inhibiting growth at fixed TET (Fig3a source data) ([3]; TET 1, panel concentrations in μg/mL per Supp. Data 3): 0
IC50 ([4]; IC50, aTC inhibition of ERA degradation, substrate ERA): 9 ± 1 µM
IC50 ([4]; IC50, aTC inhibition of OMA degradation, substrate OMA): 12 ± 4 µM
IC50 ([4]; IC50, aTC inhibition of TIG degradation, substrate TIG): 2.2 ± 0.2 µM
Slope (velocity of substrate degradation in presence of aTC) ([4]; substrate Erav, log[aTC] μM 0.81): 0.0443 and 0.0431 and 0.045
Slope (velocity of substrate degradation in presence of aTC) ([4]; substrate Erav, log[aTC] μM 1.41): 0.0266 and 0.0254 and 0.0225
Slope (velocity of substrate degradation in presence of aTC) ([4]; substrate Erav, log[aTC] μM 1.72): 0.0176 and 0.0178 and 0.0199
Slope (velocity of substrate degradation in presence of aTC) ([4]; substrate Erav, log[aTC] μM 2.07): 0.0149 and 0.0154 and 0.0125
Slope (velocity of substrate degradation in presence of aTC) ([4]; substrate Erav, log[aTC] μM 2.16): 0.007 and 0.0075 and 0.0083
Slope (velocity of substrate degradation in presence of aTC) ([4]; substrate Omad, log[aTC] μM 0.81): 0.0132 and 0.0149 and 0.0223
Slope (velocity of substrate degradation in presence of aTC) ([4]; substrate Omad, log[aTC] μM 1.41): 0.0111 and 0.0097 and 0.0109
Slope (velocity of substrate degradation in presence of aTC) ([4]; substrate Omad, log[aTC] μM 1.72): 0.0072 and 0.0051 and 0.0089
Slope (velocity of substrate degradation in presence of aTC) ([4]; substrate Omad, log[aTC] μM 2.16): 0.0042 and 0.007 and 0.0037
Slope (velocity of substrate degradation in presence of aTC) ([4]; substrate Tig, log[aTC] μM 0.81): 0.0454 and 0.0455 and 0.0453
Slope (velocity of substrate degradation in presence of aTC) ([4]; substrate Tig, log[aTC] μM 1.41): 0.0221 and 0.024 and 0.0233
Slope (velocity of substrate degradation in presence of aTC) ([4]; substrate Tig, log[aTC] μM 1.72): 0.0213 and 0.0168 and 0.0171
Slope (velocity of substrate degradation in presence of aTC) ([4]; substrate Tig, log[aTC] μM 2.07): 0.0168 and 0.0154 and 0.0122
Slope (velocity of substrate degradation in presence of aTC) ([4]; substrate Tig, log[aTC] μM 2.16): 0.0135 and 0.0131 and 0.0184
factor by which apparent kcat is lower than for tetracycline antibiotic substrates ([5]; Tet(X6)): ≤ 7
Slope (initial velocity of substrate degradation) ([5]; [Sub] 1.94805 μM): 0.0038 and 0.0045 and 0.003
Slope (initial velocity of substrate degradation) ([5]; [Sub] 3.8961 μM): 0.0098 and 0.0073 and 0.0072
Slope (initial velocity of substrate degradation) ([5]; [Sub] 6.16883 μM): 0.0097 and 0.0093 and 0.009
Slope (initial velocity of substrate degradation) ([5]; [Sub] 8.11688 μM): 0.0054 and 0.0074 and 0.0086
Slope (initial velocity of substrate degradation) ([5]; [Sub] 20.1299 μM): 0.0109 and 0.0073 and 0.0099
Slope (initial velocity of substrate degradation) ([5]; [Sub] 29.8701 μM): 0.0108 and 0.0104 and 0.0106
Michaelis-menten nonlinear fit, best-fit Vmax ([5]; supplementary source data, Tet(X6) 0.4 µM): 0.01106
MIC [6]: 32 µg/mL
MIC [7]: 4 µg/mL
MIC [8]: 8 µg/mL
ATC concentration inhibiting growth at fixed TET (Fig3a source data) ([9]; TET 0): 32
ATC concentration inhibiting growth at fixed TET (Fig3a source data) ([9]; TET 1): 32
ATC concentration inhibiting growth at fixed TET (Fig3a source data) ([9]; TET 2): 32
ATC concentration inhibiting growth at fixed TET (Fig3a source data) ([9]; TET 4): 32
ATC concentration inhibiting growth at fixed TET (Fig3a source data) ([9]; TET 8): 32
ATC concentration inhibiting growth at fixed TET (Fig3a source data) ([9]; TET 16): 16
ATC concentration inhibiting growth at fixed TET (Fig3a source data) ([9]; TET 32): 16
ATC concentration inhibiting growth at fixed TET (Fig3a source data) ([9]; TET 64): 16
ATC concentration inhibiting growth at fixed TET (Fig3a source data) ([9]; TET 128): 8
ATC concentration inhibiting growth at fixed TET (Fig3a source data) ([9]; TET 256): 0
degradation observed by optical absorbance [10]: time-dependent decrease at 440 nm
